Earlier results, collected in patent publication US20020009704A1, “Oocyte vitrification technique” (priority 2000, published 2002).

Tested on: bovine oocytes

Compound: OCCO [ethylene glycol]
- toxicity for bovine oocytes: relatively low toxicity
